From patent US20240343704A1, “HALO-SUBSTITUTED AMINO PYRIDINE COMPOUNDS AS INHIBITORS OF THE HAEMATOPOIETIC PROGENITOR KINASE 1 (HPK1)” (priority 2021, published 2024)

Target: T1, Recombinant (1-346) HPK1 (h) (Homo sapiens, UniProt Q92918)
T1 construct: Recombinant (1-346) HPK1 (h) is incubated with 8 mM MOPS pH 7.0
T1 sequence (Q92918 1-346): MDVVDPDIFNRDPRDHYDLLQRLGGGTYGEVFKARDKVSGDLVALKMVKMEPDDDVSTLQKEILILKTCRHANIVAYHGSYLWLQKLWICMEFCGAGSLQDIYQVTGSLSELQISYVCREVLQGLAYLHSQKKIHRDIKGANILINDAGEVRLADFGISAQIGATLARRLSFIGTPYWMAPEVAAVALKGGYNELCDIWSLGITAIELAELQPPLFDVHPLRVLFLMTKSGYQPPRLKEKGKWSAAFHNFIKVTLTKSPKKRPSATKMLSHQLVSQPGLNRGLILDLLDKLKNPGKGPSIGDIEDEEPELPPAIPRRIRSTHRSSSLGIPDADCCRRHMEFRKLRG
Assay: HPK1 Human STE Kinase Enzymatic Radiometric Assay
Assay type: biochemical
Details: read-out: HPK1 IC50 nM Range*
Method: A stock solution of 10 mM of test compound is prepared in DMSO. The compound plate was prepared by 3-fold and 9-point serial dilutions. […] The reaction is initiated by The addition of the Mg/ATP mix. After incubation for 40 minutes at RT, the reaction is stopped by the addition of phosphoric acid to a concentration of 0.5%.

Structure (SMILES) | IC50
Cc1[nH]c(=O)c2ccc(-c3cc(-c4ccc(N5CCOCC5)c(CN(C)C)c4)c(F)nc3N)cc2c1F [I-515, 6-(2-amino-5-(3-((dimethylamino)methyl)-4-morpholinophenyl)-6-fluoropyridin-3-yl)-4-fluoro-3-methylisoquinolin-1(2H)-one] | 11 to 100 nM
COc1ccc(-c2cc(-c3ccc4c(c3)CCNC4=O)c(N)nc2F)cc1CN1CC(OC)C1 [I-516, 6-(2-amino-6-fluoro-5-(4-methoxy-3-((3-methoxyazetidin-1-yl)methyl)phenyl)pyridin-3-yl)-3,4-dihydroisoquinolin-1(2H)-one] | 11 to 100 nM
Nc1nc(F)c(-c2ccc([C@]34C[C@H]3CN(C3CCC3)C4)cc2)cc1-c1ccc2c(=O)[nH]cc(F)c2c1 [I-520, 6-(2-amino-5-(4-((1S,5R)-3-cyclobutyl-3-azabicyclo[3.1.0]hexan-1-yl)phenyl)-6-fluoropyridin-3-yl)-4-fluoroisoquinolin-1(2H)-one] | 0.1 to 10 nM
COC1CN(Cc2cc(-c3cc(-c4ccc5c(c4)CCNC5=O)c(N)nc3F)ccc2N2CCOCC2)C1 [I-522, 6-(2-amino-6-fluoro-5-(3-((3-methoxyazetidin-1-yl)methyl)-4-morpholinophenyl)pyridin-3-yl)-3,4-dihydroisoquinolin-1(2H)-one] | 11 to 100 nM
CN(C)Cc1cc(-c2cc(-c3ccc4c(c3)CCNC4=O)c(N)nc2F)ccc1OCCCC(F)F [I-524, 6-(2-amino-5-(4-(4,4-difluorobutoxy)-3-((dimethylamino)methyl)phenyl)-6-uoropyridin-3-yl)-3,4-dihydroisoquinolin-1(2H)-one] | 0.1 to 10 nM
CN(C)Cc1cc(-c2cc(-c3cc4c(cc3F)C(=O)NCC4)c(N)nc2F)ccc1OCCCC(F)F [I-525, 6-(2-amino-5-(4-(4,4-difluorobutoxy)-3-((dimethylamino)methyl)phenyl)-6-fluoropyridin-3-yl)-7-fluoro-3,4-dihydroisoquinolin-1(2H)-one] | 11 to 100 nM
COC1CCN(Cc2cc(-c3cc(-c4ccc5c(c4)CCNC5=O)c(N)nc3F)ccc2OCCCC(F)F)CC1 [I-526, 6-(2-amino-5-(4-(4,4-difluorobutoxy)-3-((4-methoxypiperidin-1-yl)methyl)phenyl)-6-fluoropyridin-3-yl)-3,4-dihydroisoquinolin-1(2H)-one] | 11 to 100 nM
COC1CCN(Cc2cc(-c3cc(-c4cc5c(cc4F)C(=O)NCC5)c(N)nc3F)ccc2OCCCC(F)F)CC1 [I-527, 6-(2-amino-5-(4-(4,4-difluorobutoxy)-3-((4-methoxypiperidin-1-yl)methyl)phenyl)-6-fluoropyridin-3-yl)-7-fluoro-3,4-dihydroisoquinolin-1(2H)-one] | 11 to 100 nM
Cc1[nH]c(=O)c2c(F)cc(-c3cc(-c4ccc(N5CCN(CC6CC6)CC5)cc4)c(F)nc3N)cc2c1F [I-529, 6-(2-amino-5-(4-(4-(cyclopropylmethyl)piperazin-1-yl)phenyl)-6-fluoropyridin-3-yl)-4,8-difluoro-3-methylisoquinolin-1(2H)-one] | 0.1 to 10 nM
Cc1[nH]c(=O)c2c(F)cc(-c3cc(-c4ccc(N5CCOCC5)c(CN(C)C)c4)c(F)nc3N)cc2c1F [I-534, 6-(2-amino-5-(3-((dimethylamino)methyl)-4-morpholinophenyl)-6-fluoropyridin-3-yl)-4,8-difluoro-3-methylisoquinolin-1(2H)-one] | 11 to 100 nM
COc1ccc(-c2cc(-c3ccc4c(c3)CCNC4=O)c(N)nc2F)cc1CO [I-536, 6-(2-amino-6-fluoro-5-(3-(hydroxymethyl)-4-methoxyphenyl)pyridin-3-yl)-3,4-dihydroisoquinolin-1(2H)-one] | 11 to 100 nM
COc1c[nH]c(=O)c2ccc(-c3cc(-c4ccc(N5CCN(C(C)C)CC5)cc4)c(F)nc3N)cc12 [I-537] | 0.1 to 10 nM
Cc1[nH]c(=O)c2ccc(-c3cc(-c4ccc(N5CCN(C(C)C)CC5)cc4)c(F)nc3N)cc2c1Cl [I-538, 6-(2-amino-6-fluoro-5-(4-(4-isopropylpiperazin-1-yl)phenyl)pyridin-3-yl)-4-chloro-3-methylisoquinolin-1(2H)-one] | 0.1 to 10 nM
COC1CCN(Cc2cc(-c3cc(-c4ccc5c(c4)CCNC5=O)c(N)nc3F)ccc2N2CCOCC2)C1 (centres unmarked) [I-542, 6-(2-amino-6-fluoro-5-(3-((3-methoxypyrrolidin-1-yl)methyl)-4-morpholinophenyl)pyridin-3-yl)-3,4-dihydroisoquinolin-1(2H)-one] | 11 to 100 nM
Nc1nc(F)c(-c2ccc(N3CCN(CCCC(F)F)CC3)cc2)cc1-c1ccc2c(=O)[nH]cc(F)c2c1 [I-544, 6-(2-amino-5-(4-(4-(4,4-difluorobutyl)piperazin-1-yl)phenyl)-6-fluoropyridin-3-yl)-4-fluoroisoquinolin-1(2H)-one] | 0.1 to 10 nM

The next lines start with the values.

IC50 | Structure (SMILES)
11 to 100 nM | COc1ccc(-c2cc(-c3cc4c(cc3F)C(=O)NCC4)c(N)nc2F)cc1CN1CC(OC)C1 [I-517, 6-(2-amino-6-fluoro-5-(4-methoxy-3-((3-methoxyazetidin-1-yl)methyl)phenyl)pyridin-3-yl)-7-fluoro-3,4-dihydroisoquinolin-1(2H)-one]
11 to 100 nM | COc1ccc(-c2cc(-c3ccc4c(c3)CCNC4=O)c(N)nc2F)cc1CN1CCC(OC)CC1 [I-518, 6-(2-amino-6-fluoro-5-(4-methoxy-3-((4-methoxypiperidin-1-yl)methyl)phenyl)pyridin-3-yl)-3,4-dihydroisoquinolin-1(2H)-one]
11 to 100 nM | COc1ccc(-c2cc(-c3cc4c(cc3F)C(=O)NCC4)c(N)nc2F)cc1CN1CCC(OC)CC1 [I-519, 6-(2-amino-6-fluoro-5-(4-methoxy-3-((4-methoxypiperidin-1-yl)methyl)phenyl)pyridin-3-yl)-7-fluoro-3,4-dihydroisoquinolin-1(2H)-one]
11 to 100 nM | Cc1[nH]c(=O)c2ccc(-c3cc(-c4ccc(C5CCOCC5)c(CN(C)C)c4)c(F)nc3N)cc2c1F [I-521, 6-(2-amino-5-(3-((dimethylamino)methyl)-4-(tetrahydro-2H-pyran-4-yl)phenyl)-6-fluoropyridin-3-yl)-4-fluoro-3-methylisoquinolin-1(2H)-one]
11 to 100 nM | COC1CN(Cc2cc(-c3cc(-c4cc5c(cc4F)C(=O)NCC5)c(N)nc3F)ccc2N2CCOCC2)C1 [I-523, 6-(2-amino-6-fluoro-5-(3-((3-methoxyazetidin-1-yl)methyl)-4-morpholinophenyl)pyridin-3-yl)-7-fluoro-3,4-dihydroisoquinolin-1(2H)-one]
101 to 1000 nM | Nc1nc(F)c(-c2ccc(C3=CCOCC3)cc2CO)cc1-c1cc2c(cc1F)C(=O)NCC2 [I-528, 6-(2-amino-5-(4-(3,6-dihydro-2H-pyran-4-yl)-2-(hydroxymethyl)phenyl)-6-fluoropyridin-3-yl)-7-fluoro-3,4-dihydroisoquinolin-1(2H)-one]
11 to 100 nM | CN(C)Cc1cc(-c2cc(-c3ccc4c(c3)CCNC4=O)c(N)nc2F)ccc1OC1CCOCC1 [I-530, 6-(2-amino-5-(3-((dimethylamino)methyl)-4-((tetrahydro-2H-pyran-4-yl)oxy)phenyl)-6-fluoropyridin-3-yl)-3,4-dihydroisoquinolin-1(2H)-one]
11 to 100 nM | CN(C)Cc1cc(-c2cc(-c3cc4c(cc3F)C(=O)NCC4)c(N)nc2F)ccc1OC1CCOCC1 [I-531, 6-(2-amino-5-(3-((dimethylamino)methyl)-4-((tetrahydro-2H-pyran-4-yl)oxy)phenyl)-6-fluoropyridin-3-yl)-7-fluoro-3,4-dihydroisoquinolin-1(2H)-one]
11 to 100 nM | CN(C)Cc1cc(-c2cc(-c3ccc4c(c3)CCNC4=O)c(N)nc2F)ccc1OCC1CCOCC1 [I-532, 6-(2-amino-5-(3-((dimethylamino)methyl)-4-((tetrahydro-2H-pyran-4-yl)methoxy)phenyl)-6-fluoropyridin-3-yl)-3,4-dihydroisoquinolin-1(2H)-one]
0.1 to 10 nM | CN(C)Cc1cc(-c2cc(-c3cc4c(cc3F)C(=O)NCC4)c(N)nc2F)ccc1OCC1CCOCC1 [I-533, 6-(2-amino-5-(3-((dimethylamino)methyl)-4-((tetrahydro-2H-pyran-4-yl)methoxy)phenyl)-6-fluoropyridin-3-yl)-7-fluoro-3,4-dihydroisoquinolin-1(2H)-one]
11 to 100 nM | Cc1[nH]c(=O)c2c(F)cc(-c3cc(-c4ccc(C5CCOCC5)c(CN(C)C)c4)c(F)nc3N)cc2c1F [I-535, 6-(2-amino-5-(3-((dimethylamino)methyl)-4-(tetrahydro-2H-pyran-4-yl)phenyl)-6-fluoropyridin-3-yl)-4,8-difluoro-3-methylisoquinolin-1(2H)-one]
0.1 to 10 nM | CN1CCOC2(C1)CN(c1ccc(-c3cc(-c4cc5c(cc4F)C(=O)NCC5)c(N)nc3F)cc1)C2 [I-539, 6-(2-amino-6-fluoro-5-(4-(8-methyl-5-oxa-2,8-diazaspiro[3.5]nonan-2-yl)phenyl)pyridin-3-yl)-7-fluoro-3,4-dihydroisoquinolin-1(2H)-one]
11 to 100 nM | COC1CCN(Cc2cc(-c3cc(-c4ccc5c(c4)CCNC5=O)c(N)nc3F)ccc2C2CCOCC2)CC1 [I-540, 6-(2-amino-6-fluoro-5-(3-((4-methoxypiperidin-1-yl)methyl)-4-(tetrahydro-2H-pyran-4-yl)phenyl)pyridin-3-yl)-3,4-dihydroisoquinolin-1(2H)-one]
11 to 100 nM | COC1CCN(Cc2cc(-c3cc(-c4cc5c(cc4F)C(=O)NCC5)c(N)nc3F)ccc2C2CCOCC2)CC1 [I-541, 6-(2-amino-6-fluoro-5-(3-((4-methoxypiperidin-1-yl)methyl)-4-(tetrahydro-2H-pyran-4-yl)phenyl)pyridin-3-yl)-7-fluoro-3,4-dihydroisoquinolin-1(2H)-one]
